These results are taken from US11078228B2, “Ectonucleotidase inhibitors and methods of use thereof” (Calithera Biosciences, Inc., priority 2018, dated 2021).

This experiment deals with recombinant CD73 (Homo sapiens (Human), UniProt P21589). Briefly: Assay 1: Inhibition of the CD73 enzyme in vitro (0.5 nM CD73, 30 min room temperature, Malachite Green). Type of experiment: biochemical. The following applies: 0.5 nM CD73, 30 minutes at room temperature. The protocol: For measurements of soluble CD73 enzyme activity, recombinant CD73 was obtained from R&D Systems, Cat. No. 5795-EN-010. […] Reactions were allowed to proceed for 30 minutes at room temperature before the addition of 100 μL Malachite Green (Cell Signaling Technology, Cat. No. 12776). After 5 minutes at room temperature, absorbance at 630 nm was determined on a microplate spectrophotometer. The concentration of inorganic phosphate was determined using a phosphate standard curve.
recombinant CD73, sequence (P21589 27-547): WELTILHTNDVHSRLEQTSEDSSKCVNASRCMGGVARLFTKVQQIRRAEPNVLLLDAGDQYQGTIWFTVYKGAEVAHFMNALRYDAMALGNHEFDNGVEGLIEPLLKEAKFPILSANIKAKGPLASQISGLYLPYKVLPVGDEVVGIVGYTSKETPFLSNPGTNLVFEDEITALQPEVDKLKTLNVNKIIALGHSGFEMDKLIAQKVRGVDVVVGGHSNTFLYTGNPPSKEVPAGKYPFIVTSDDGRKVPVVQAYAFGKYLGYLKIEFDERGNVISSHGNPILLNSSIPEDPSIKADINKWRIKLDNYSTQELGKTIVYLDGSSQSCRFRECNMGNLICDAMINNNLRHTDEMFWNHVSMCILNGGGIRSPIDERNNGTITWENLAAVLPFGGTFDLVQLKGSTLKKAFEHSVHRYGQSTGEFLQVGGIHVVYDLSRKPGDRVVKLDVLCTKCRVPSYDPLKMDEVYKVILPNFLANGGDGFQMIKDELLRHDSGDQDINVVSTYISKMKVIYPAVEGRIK
For orientation: IC50 means the concentration needed to halve the response being measured. In the case of `C#C[C@@]1(O)[C@@H](COCP(=O)(O)O)O[C@@H](n2cnc3c(NCc4ccccc4)nc(Cl)nc32)[C@@H]1O` [Example 204, ((((2R,3S,4R,5R)-5-(6-(benzylamino)-2-chloro-9H-purin-9-yl)-3-ethynyl-3,4-dihydroxytetrahydrofuran-2-yl)methoxy)methyl)phosphonic acid], the IC50 was 100 nM.

Consider `C#C[C@@]1(O)[C@@H](CO[C@](Cc2ccccc2)(C(=O)O)c2nnn[nH]2)O[C@@H](n2cnc3c(N)nc(Cl)nc32)[C@@H]1O` [Example 191, (S)-2-(((2R,3S,4R,5R)-5-(6-amino-2-chloro-9H-purin-9-yl)-3-ethynyl-3,4-dihydroxytetrahydrofuran-2-yl)methoxy)-3-phenyl-2-(1H-tetrazol-5-yl)propanoic acid], for which the IC50 came to 7 nM.

Regarding `C#CCC(OC[C@H]1O[C@@H](n2cnc3c(N)nc(Cl)nc32)[C@H](O)[C@@]1(O)C#C)(C(=O)O)C(=O)O` [Example 25, 2-(((2R,3S,4R,5R)-5-(6-amino-2-chloro-9H-purin-9-yl)-3-ethynyl-3,4-dihydroxytetrahydrofuran-2-yl)methoxy)-2-(prop-2-yn-1-yl)malonic acid], the IC50 came out at 7 nM.

As for `C#C[C@@]1(O)[C@@H](COC(Cc2cccc(OC)c2)(C(=O)O)C(=O)O)O[C@@H](n2cnc3c(N)nc(Cl)nc32)[C@@H]1O` [Example 52, 2-(((2R,3S,4R,5R)-5-(6-amino-2-chloro-9H-purin-9-yl)-3-ethynyl-3,4-dihydroxytetrahydrofuran-2-yl)methoxy)-2-(3-methoxybenzyl)malonic acid], the IC50 was found to be 4 nM.

Regarding `C#C[C@@]1(O)[C@@H](COC(C(=O)O)c2cscn2)O[C@@H](n2cnc3c(N)nc(Cl)nc32)[C@@H]1O` (stereo partly drawn) [Example 179, 2-(((2R,3S,4R,5R)-5-(6-amino-2-chloro-9H-purin-9-yl)-3-ethynyl-3,4-dihydroxytetrahydrofuran-2-yl)methoxy)-2-(thiazol-4-yl)acetic acid], the IC50 came out at 320 nM.

Regarding `C#C[C@@]1(O)[C@@H](COP(=O)(O)CP(=O)(O)O)O[C@@H](n2cnc3c(N)nc(Cl)nc32)[C@@H]1O` [Example 202, (((((2R,3S,4R,5R)-5-(6-amino-2-chloro-9H-purin-9-yl)-3-ethynyl-3,4-dihydroxytetrahydrofuran-2-yl)methoxy)(hydroxy)phosphoryl)methyl)phosphonic acid], the IC50 was 148 nM.

With `C#C[C@@]1(O)[C@@H](CO[C@@](C#N)(Cc2ccccc2)C(=O)O)O[C@@H](n2cnc3c(N)nc(Cl)nc32)[C@@H]1O` (single isomer, unassigned) [Example 190], the IC50 was 9320 nM.

`C#C[C@@]1(O)[C@@H](COP(=O)(O)CP(=O)(O)O)O[C@@H](n2cnc3c(NCc4ccccc4)nc(Cl)nc32)[C@@H]1O` [Example 203, (((((2R,3S,4R,5R)-5-(6-(benzylamino)-2-chloro-9H-purin-9-yl)-3-ethynyl-3,4-dihydroxytetrahydrofuran-2-yl)methoxy)(hydroxy)phosphoryl)methyl)phosphonic acid]: the IC50 amounted to 4.2 nM.

With `C[C@@]1(O)[C@@H](CO[C@](Cc2ccc(-c3ccccc3)cc2)(C(=O)O)c2cscn2)O[C@@H](n2cnc3c(N)nc(Cl)nc32)[C@@H]1O` (single isomer, unassigned) [Example 198], the IC50 turned out to be 2270 nM.

As for `C#C[C@@]1(O)[C@@H](CO[C@](Cc2ccccc2)(C(=O)O)c2cscn2)O[C@@H](n2cnc3c(N)nc(Cl)nc32)[C@@H]1O` (single isomer, unassigned) [Example 180], the IC50 worked out at 9 nM.

Turning to `C[C@@]1(O)[C@@H](COP(=O)(O)CP(=O)(O)O)O[C@@H](n2cnc3c(NCc4ccccc4)nc(Cl)nc32)[C@@H]1O` [Example 205, (((((2R,3S,4R,5R)-5-(6-(benzylamino)-2-chloro-9H-purin-9-yl)-3,4-dihydroxy-3-methyltetrahydrofuran-2-yl)methoxy)(hydroxy)phosphoryl)methyl)phosphonic acid], the IC50 was 12 nM.

With `C#CCC(OC[C@H]1O[C@@H](n2cnc3c(N)nc(Cl)nc32)[C@H](O)[C@@]1(O)C#C)(C(=O)O)c1cscn1` (stereo partly drawn) [Example 184, 2-(((2R,3S,4R,5R)-5-(6-amino-2-chloro-9H-purin-9-yl)-3-ethynyl-3,4-dihydroxytetrahydrofuran-2-yl)methoxy)-2-(thiazol-4-yl)pent-4-ynoic acid], the IC50 was 102 nM.

As to `Nc1nc(Cl)nc2c1ncn2[C@@H]1O[C@H](COC(C(=O)O)C(=O)O)[C@](O)(C#Cc2ccn(Cc3ccccc3)n2)[C@H]1O` [Example 28, 2-(((2R,3S,4R,5R)-5-(6-amino-2-chloro-9H-purin-9-yl)-3-((1-benzyl-1H-pyrazol-3-yl)ethynyl)-3,4-dihydroxytetrahydrofuran-2-yl)methoxy)malonic acid], the IC50 turned out to be 3 nM.

For the compound `C#C[C@@]1(O)[C@@H](COC(C(=O)NO)c2cscn2)O[C@@H](n2cnc3c(N)nc(Cl)nc32)[C@@H]1O` (single isomer, unassigned) [Example 186], the IC50 was 8830 nM.

Consider `C#C[C@@]1(O)[C@@H](COC(C(=O)O)C(=O)N2CCCC2)O[C@@H](n2cnc3c(NC4CCCC4)nc(Cl)nc32)[C@@H]1O` (stereo partly drawn) [Example 114, 2-(((2R,3S,4R,5R)-5-(2-chloro-6-(cyclopentylamino)-9H-purin-9-yl)-3-ethynyl-3,4-dihydroxytetrahydrofuran-2-yl)methoxy)-3-oxo-3-(pyrrolidin-1-yl)propanoic acid], for which the IC50 was 177 nM.

In the case of `C#C[C@@]1(O)[C@@H](CO[C@](Cc2ccccc2)(C(=O)O)c2cscn2)O[C@@H](n2cnc3c(NC)nc(Cl)nc32)[C@@H]1O` [Example 187, (S)-2-(((2R,3S,4R,5R)-5-(2-chloro-6-(methylamino)-9H-purin-9-yl)-3-ethynyl-3,4-dihydroxytetrahydrofuran-2-yl)methoxy)-3-phenyl-2-(thiazol-4-yl)propanoic acid], the half-maximal inhibitory concentration (IC50) was found to be 10 nM.

Regarding `C#C[C@@]1(O)[C@@H](COC(Cc2ccccc2)(C(=O)O)c2csc(C(=O)O)n2)O[C@@H](n2cnc3c(N)nc(Cl)nc32)[C@@H]1O` (stereo partly drawn) [Example 196, 4-(1-(((2R,3S,4R,5R)-5-(6-amino-2-chloro-9H-purin-9-yl)-3-ethynyl-3,4-dihydroxytetrahydrofuran-2-yl)methoxy)-1-carboxy-2-phenylethyl)thiazole-2-carboxylic acid], the IC50 was 82 nM.

Regarding `C#C[C@@]1(O)[C@@H](COC(Cc2cccc(C(F)(F)F)c2)(C(=O)O)C(=O)OCC)O[C@@H](n2cnc3c(N)nc(Cl)nc32)[C@@H]1O` (stereo partly drawn) [Example 49, 2-(((2R,3S,4R,5R)-5-(6-amino-2-chloro-9H-purin-9-yl)-3-ethynyl-3,4-dihydroxytetrahydrofuran-2-yl)methoxy)-3-ethoxy-3-oxo-2-(3-(trifluoromethyl)-benzyl)propanoic acid], the IC50 amounted to 273 nM.

Take `C#C[C@@]1(O)[C@@H](COC(Cc2cccc(C(=O)O)c2)(C(=O)O)c2cscn2)O[C@@H](n2cnc3c(N)nc(Cl)nc32)[C@@H]1O` (stereo partly drawn) [Example 182, 3-(2-(((2R,3S,4R,5R)-5-(6-amino-2-chloro-9H-purin-9-yl)-3-ethynyl-3,4-dihydroxytetrahydrofuran-2-yl)methoxy)-2-carboxy-2-(thiazol-4-yl)ethyl)benzoic acid]: the IC50 came out at 24 nM.
